# Where a name gives a salt, the structure may show the parent alone.
# Experiments:
# Thoracic aorta = experiment: Calcium antagonistic activity (relaxation of thoracic aorta); type: cell-based, rat (male Wistar strain); conditions: Rattus norvegicus; final concentration 10 μM; 10 mM CaCl2
# Method: Thoracic aorta was removed from male Wistar strain rats with a body weight of 350 g to 450 g and then spiral-shaped pieces of aorta were prepared therefrom. […] Thereafter, samples were further stabilized in Krebs-Henseleit solution containing no CaCl2 over 1 hour and then in a 80 mM KCl nutritive liquid wherein NaCl was exchanged with an equimolar KCl (depolarized liquid) over a further one hour. Then, samples were washed with the depolarized liquid and loaded with a static tension of 1.0 g. When CaCl2 was added to the nutritive liquid so as to reach a final concentration of 10 mM, tension was produced in samples and, after 15-20 minutes from the addition of CaCl2, the maximum tension was obtained. At this point, test compounds were applied and relaxing activity of test compounds was evaluated. Tension was determined in equal dimension.
# Relaxation rate was calculated according to the following equation: [formula] A: Maximum tension generated B: Generated tension retained after administration of test compound
# All test compounds were given in the form of a solution in dimethyl sulfoxide at a dose of 0.1 ml, whereupon a final concentration of dimethyl sulfoxide itself was adjusted to 0.5 V/V %.
# carotid artery = experiment: Action on blood flow volume in carotid artery; type: in vivo, rabbit (male New Zealand White)
# Method: (§1) Male New Zealand White rabbits (body weight of 2.8 Kg to 3.5 Kg) were used and anesthetized with pentobarbital sodium. Blood flow volumes in the carotid artery and femoral artery were measured and recorded via a non-blood observing type of a probe for measuring blood flow volume. Also, blood pressure in femoral artery was simultaneously measured and recorded with measurement of blood flow.
# (§2) The compound of this invention was dissolved in an aqueous solution containing 1% tartaric acid and 1% dimethylacetamide, while papaverine hydrochloride dissolved in 0.9% physiological saline. These test compounds were intravenously given through a residual polyethylene tube within femoral vein.
# femoral artery [1] = experiment: Action on blood flow volume in femoral artery; type: in vivo, rabbit (male New Zealand White)
# Method: as §1, §2
# femoral artery [2] = experiment: Action on blood pressure in femoral artery; type: in vivo, rabbit (male New Zealand White)
# Method: as §1, §2
# candate nucleus = experiment: Activity to increase topical cerebral blood flow, candate nucleus (heat clearance method); type: in vivo, rabbit (male New Zealand White); conditions: change in blood flow expressed in terms of voltage
# Method: as §2
# (§3) Physiol. Scand., 67, 1 (1966); "Kokyu to Junkan" (in Japanese), 15, 435 (1967); the Journal of the Pharmacological Society of Japan, 71, 709 (1975)]. Simultaneously, blood pressure in femoral artery was also determined. Preparation and administration of test compounds were carried out in the same manner as in the above item (6).
# cerebral cortex = experiment: Activity to increase topical cerebral blood flow, cerebral cortex (heat clearance method); type: in vivo, rabbit (male New Zealand White); conditions: change in blood flow expressed in terms of voltage
# Method: as §2, §3
# femoral artery [3] = experiment: Blood pressure in femoral artery, topical cerebral blood flow test; type: in vivo, rabbit (male New Zealand White)
# Method: as §2, §3
# mice = experiment: Anti-thrombotic activity: arachidonic acid-induced mortality in mice; type: in vivo, mouse (male ICR-JCL strain); conditions: for Survival time of dead mice: arachidonic acid 100 mg/Kg i.v.; for Mortality: arachidonic acid 100 mg/Kg i.v. after 1 hour
# Method: (§4) Male ICR-JCL strain mice with an average body weight of about 25 g and male New Zealand White rabbits with an average body weight of about 3 Kg were used.
# Where mice were used as experimental animals, a suspension of the test compound indicated in Table 3 in a 1% tragacanth aqueous solution was orally administered to animals at 20 ml/Kg. One hour after the administration, an arachidonic acid (PL-biochemical Co., Inc.) solution dissolved in a 0.1M sodium carbonate aqueous solution was intravenously given at 100 mg/Kg. Evaluation of activity was effected with the time from the administration of arachidonic acid up to the death of animals as well as mortality.
# rabbits = experiment: Anti-thrombotic activity: arachidonic acid-induced mortality in rabbits; type: in vivo, rabbit (male New Zealand White); conditions: of 4 rabbits
# Method: as §4
# Where rabbits were used as experimental animals, a suspension of the test compound in a 1% tragacanth aqueous solution was orally administered to animals at 5 ml/Kg. Two hours after the administration, an arachidonic acid solution dissolved in a 0.1M potassium carbonate solution was injected into pinna vein at 1.4 mg/Kg.
# Evaluation of activity was effected with mortality at the time when arachidonic acid given. If survived at the first administration of arachidonic acid, arachidonic acid was administered after 6 hours, 24 hours, 48 hours and 72 hours from the administration of the test compound, respectively, and mortality was determined in respective cases.
# blood platelets = experiment: Activity to inhibit the aggregation of blood platelets (collagen, ex vivo after oral administration); type: in vivo, rat (male Wistar-ST strain); conditions: Rattus norvegicus, Platelet; 10 mg/Kg oral, 1 hour after administration; collagen 7 to 10 μg/ml; read-out: Inhibitory rate (blood platelet aggregation)
# Method: Male Wistar-ST strain rats of an average body weight of 250 g were used, a group consisting of 8 animals. The test compound indicated in the following Table 1 was orally administered to rats in the form of a suspension in a 1% tragacanth aqueous solution at 4 ml/Kg (the test compound 10 mg/Kg).
# One hour after the administration, blood samples were obtained from the carotid artery by means of a cannule. […] Tubes were turned upside-down and then subjected to centrifugation at 200×g over 15 minutes to assign the supernatant as a platelet-rich plasma (PRP). The residue was further centrifuged at […] over 15 minutes to assign the supernatant as a platelet-poor plasma (PPP). These supernatants were applied for determining the ability to aggregate blood platelets. […] As an aggregation inducing agent, collagen (availale from Hormon-chemie A.G.) was used at a concentration of 7 to 10 μg/ml.
# Inhibitory rate to aggregate blood platelets was calculated according to the following equation: [formula] A: […] in the group to which the 1% tragacanth solution alone was given (Control)
# B: Aggregation rate in the group to which the tragacanth solution of the test compound was given.
# in vivo = conditions: rat, po, rats
structure (smiles),measurement,setting,value
"COc1ccc(Cc2nccc3cc(OC)c(OC)cc23)cc1OC [Papaverine hydrochloride, papaverine hydrochloride, reference compound]",inhibition at 10 µM,Thoracic aorta,0%
same,"Blood flow volume in carotid artery, A: Before administration",carotid artery; 0.5 mg/Kg i.v.,18.6 mL/min
same,"Blood flow volume in carotid artery, B: After administration",carotid artery; 0.5 mg/Kg i.v.,38.7 mL/min
same,"Blood flow volume in carotid artery, C: Increase degree",carotid artery; 0.5 mg/Kg i.v.,20.1 mL/min
same,"Blood flow volume in carotid artery, D: Increase rate",carotid artery; 0.5 mg/Kg i.v.,108.3%
same,"Blood flow volume in carotid artery, A: Before administration",carotid artery; 1.0 mg/Kg i.v.,19.3 mL/min
same,"Blood flow volume in carotid artery, B: After administration",carotid artery; 1.0 mg/Kg i.v.,26.3 mL/min
same,"Blood flow volume in carotid artery, C: Increase degree",carotid artery; 1.0 mg/Kg i.v.,7.0 mL/min
same,"Blood flow volume in carotid artery, D: Increase rate",carotid artery; 1.0 mg/Kg i.v.,33.2%
same,"Blood flow volume in femoral artery, A: Before administration",femoral artery [1]; 0.5 mg/Kg i.v.,16.8 mL/min
same,"Blood flow volume in femoral artery, B: After administration",femoral artery [1]; 0.5 mg/Kg i.v.,23.0 mL/min
same,"Blood flow volume in femoral artery, C: Increase degree",femoral artery [1]; 0.5 mg/kg i.v.,6.1 mL/min
same,"Blood flow volume in femoral artery, D: Increase rate",femoral artery [1]; 0.5 mg/kg i.v.,40.3%
same,"Blood flow volume in femoral artery, A: Before administration",femoral artery [1]; 1.0 mg/Kg i.v.,30.1 mL/min
same,"Blood flow volume in femoral artery, B: After administration",femoral artery [1]; 1.0 mg/Kg i.v.,40.0 mL/min
same,"Blood flow volume in femoral artery, C: Increase degree",femoral artery [1]; 1.0 mg/kg i.v.,9.8 mL/min
same,"Blood flow volume in femoral artery, D: Increase rate",femoral artery [1]; 1.0 mg/kg i.v.,32.7%
same,"Blood pressure in femoral artery, A: Before administration",femoral artery [2]; 0.5 mg/kg i.v.,94.8 mmHg
same,"Blood pressure in femoral artery, B: After administration",femoral artery [2]; 0.5 mg/kg i.v.,82.4 mmHg
same,"Blood pressure in femoral artery, E: Lowering degree",femoral artery [2]; 0.5 mg/kg i.v.,12.4 mmHg
same,"Blood pressure in femoral artery, F: Lowering rate",femoral artery [2]; 0.5 mg/kg i.v.,13.2%
same,"Blood pressure in femoral artery, A: Before administration",femoral artery [2]; 1.0 mg/kg i.v.,91.8 mmHg
same,"Blood pressure in femoral artery, B: After administration",femoral artery [2]; 1.0 mg/kg i.v.,68.8 mmHg
same,"Blood pressure in femoral artery, E: Lowering degree",femoral artery [2]; 1.0 mg/kg i.v.,23.1 mmHg
same,"Blood pressure in femoral artery, F: Lowering rate",femoral artery [2]; 1.0 mg/kg i.v.,25.3%
same,"Increase in topical blood flow volume, Candate nucleus",candate nucleus; 0.3 mg/Kg i.v.,0.19 ± 0.04 Δ μV
same,"Increase in topical blood flow volume, Candate nucleus",candate nucleus; 1 mg/Kg i.v.,0.35 ± 0.07 Δ μV
same,"Increase in topical blood flow volume, Cerebral cortex",cerebral cortex; 0.3 mg/Kg i.v.,0.57 ± 0.11 Δ μV
same,"Increase in topical blood flow volume, Cerebral cortex",cerebral cortex; 1 mg/Kg i.v.,1.05 ± 0.21 Δ μV
same,Lowering of blood pressure in femoral artery,femoral artery [3]; 0.3 mg/Kg i.v.,15.0 ± 1.2%
same,Lowering of blood pressure in femoral artery,femoral artery [3]; 1 mg/Kg i.v.,20.8 ± 3.4%
"Clc1ccccc1CN1CCc2sccc2C1 [Ticlopidine, ticlopidine, reference compound]",Survival time of dead mice,mice; 300 mg/Kg oral,81 ± 13 s
same,Mortality,mice; 300 mg/Kg oral,100%
same,Survival time of dead mice,mice; 1000 mg/Kg oral,128 ± 18 s
same,Mortality,mice; 1000 mg/Kg oral,100%
same,Mortality (number of rabbits),"rabbits; 30 mg/Kg oral, 2 hrs. after administration",4
same,Mortality (number of rabbits),"rabbits; 100 mg/Kg oral, 2 hrs. after administration",3
same,Mortality (number of rabbits),"rabbits; 100 mg/Kg oral, 6 hrs. after administration",1
CCCNc1nnc(-c2ccccc2)c2ccccc12 [compound 1],inhibition at 10 mg/kg,blood platelets,27.6%
CC(C)Nc1nnc(-c2ccccc2)c2ccccc12 [compound 2],inhibition at 10 mg/kg,blood platelets,7.1%
CCCCNc1nnc(-c2ccccc2)c2ccccc12 [compound 3],inhibition at 10 mg/kg,blood platelets,0%
CC(C)CNc1nnc(-c2ccccc2)c2ccccc12 [compound 4],inhibition at 10 mg/kg,blood platelets,0%
CCC(C)Nc1nnc(-c2ccccc2)c2ccccc12 (stereo not shown) [compound 5],inhibition at 10 mg/kg,blood platelets,0%
CC(C)(C)Nc1nnc(-c2ccccc2)c2ccccc12 [compound 6],inhibition at 10 mg/kg,blood platelets,0%
CCCCCNc1nnc(-c2ccccc2)c2ccccc12 [compound 7],inhibition at 10 mg/kg,blood platelets,6.2%
same,LD50,in vivo,1780 mg/kg
CCCC(C)Nc1nnc(-c2ccccc2)c2ccccc12 (stereo not shown) [compound 8],inhibition at 10 mg/kg,blood platelets,0%
CCC(C)CNc1nnc(-c2ccccc2)c2ccccc12 (stereo not shown) [compound 9],inhibition at 10 mg/kg,blood platelets,79.2%
same,LD50,in vivo,2180 mg/kg
CC(C)C(C)Nc1nnc(-c2ccccc2)c2ccccc12 (stereo not shown) [compound 10],inhibition at 10 mg/kg,blood platelets,54.1%
same,LD50,in vivo,2530 mg/kg
CC(C)CCNc1nnc(-c2ccccc2)c2ccccc12 [compound 11],inhibition at 10 mg/kg,blood platelets,24%
CCC(C)(C)Nc1nnc(-c2ccccc2)c2ccccc12 [compound 12],inhibition at 10 mg/kg,blood platelets,0%
c1ccc(-c2nnc(NC3CCCC3)c3ccccc23)cc1 [compound 13],inhibition at 10 mg/kg,blood platelets,0%
CCCCCCNc1nnc(-c2ccccc2)c2ccccc12 [compound 14],inhibition at 10 mg/kg,blood platelets,15.6%
CCC(CC)CNc1nnc(-c2ccccc2)c2ccccc12 [compound 15],inhibition at 10 mg/kg,blood platelets,14.6%
CC(C)CC(C)Nc1nnc(-c2ccccc2)c2ccccc12 (stereo not shown) [compound 16],inhibition at 10 mg/kg,blood platelets,0%
CC(C)(C)CCNc1nnc(-c2ccccc2)c2ccccc12 [compound 17],inhibition at 10 mg/kg,blood platelets,17.3%
c1ccc(-c2nnc(NC3CCCCC3)c3ccccc23)cc1 [compound 18],inhibition at 10 mg/kg,blood platelets,0%
CCCCCCCNc1nnc(-c2ccccc2)c2ccccc12 [compound 19],inhibition at 10 mg/kg,blood platelets,0%
CCCCCCCCNc1nnc(-c2ccccc2)c2ccccc12 [compound 20],inhibition at 10 mg/kg,blood platelets,0%

# Source: patent publication US4668677A, “4-phenylphthalazine derivatives, their preparation and their use as pharmaceuticals” (Mitsubishi Chemical Industries Limited, priority 1984, dated 1987)
